The numbers were not newly measured in patent US20230338417A1, “Improved Pharmaceutical Preparation” (priority 2020, published 2023), which cites them from elsewhere.

In the case of peroxochloric acid, the “Acid dissociation constant as pKa at 298K” value is “approx. 6.2”. For the compound `[O-][Cl+2]([O-])O` [chloric acid], the “Acid dissociation constant as pKa at 298K” value is recorded as 0.
